“Also recorded” adds a separate entry of the source.
Tested on: HaCat cells
Experiment: Incorporation of BrdU in the DNA of human keratinocytes after radiation with ultraviolet light
Assay type: cell-based
Method: Culture of the HaCat line
The HaCat line is an immortalized line of normal human keratinocytes. These cells grow in a culture medium consisting of Hanks liquid to which 5% of foetal bovine serum and 2% of penicillin-streptomycin is added at 37° C. in a CO2 atmosphere.
To determine the replication rate, the cells were grown in microplates at a density of 2*10^4 cells per matrix. After 24 hours of treatment, the media was renewed and the cultures were incubated for 24 hours at 37° C. with different concentrations of the extracts and different concentrations of the curcumin and psoralen. Parallel controls were carried out with the solvent (ethanol 0.1%). The incorporation of BrdU was determined with the ELISA test.
The cells were radiated with UVA light at an intensity of 1 J/cm^2 and the incorporation of BrdU was then analysed.

[1] = after UVA radiation, human keratinocytes

Structure (SMILES)	amount for 20 % incorporation of BrdU [1] [ng]	amount for 40 % incorporation of BrdU [1] [ng]	amount for 60 % incorporation of BrdU [1] [ng]	amount for 80 % incorporation of BrdU [1] [ng]	toxicity at the dose giving the same photosensitivisation as Curcuma extracts (10 ng/ml)	dose required to produce the same level of photosensitivisation as Curcuma extracts (after UV radiation, BrdU incorporation) [ng/mL]
COc1cc(/C=C/C(=O)CC(=O)/C=C/c2ccc(O)c(OC)c2)ccc1O [curcumin]	1200	1000	800	600	–	–
O=c1ccc2cc3ccoc3cc2o1 [psoralen]	–	–	–	–	toxic doses; also recorded: toxic and mutagenic effects are produced	10

From US6841177B1, “Pharmacological activities of curcuma longa extracts” (ASAC Compania de Biotecnologia e Investigacion S.A., priority 1999, dated 2005)
